According to EP0891770B1, “Killer T cell activator and use thereof” (Nitto Denko Corporation, priority 1997, dated 1999):
Read-outs that look alike come from different tables or passages of the source. Where a SMILES comes first, the peptide text is derived from it.

Tests used:
[1] = test system: HSV peptide-pulsed L cells; settings: peptide given as inoculated pressure sensitive adhesive tape
Description: At 1 week after the peptide application, cervical lymph node was removed, and lymphocytes were cultured for 2 days in vitro in an RPMI1640 medium containing a slight amount (5 U/ml) of IL-2. The L^kb cells labeled with ^51Cr were pulsed with antigenic peptide (5 µmol) and L^tk- cells were used as a control. Cytotoxicity assay was performed using cultured lymphocytes as effector cells, and ^51Cr-labeled and antigenic peptide-pulsed L^kb cells and L^tk- cells as target cells. […] The antigenic peptides used were the three kinds recited in Reference Example 1.

[2] = test system: antigenic peptide-pulsed L^kb cells

SMILES | Cytotoxic activity specific to HSV peptide-pulsed L cells (%) ([1]; time after stripping 12) | Cytotoxic activity specific to HSV peptide-pulsed L cells (%) ([1]; time after stripping 24) | Cytotoxic activity specific to HSV peptide-pulsed L cells (%) ([1]; time after stripping 48) | Cytotoxic activity specific to HSV peptide-pulsed L cells (%) ([1]; time after stripping: untreated) | cytotoxic activity of cervical lymphocyte-derived effector cells (antigen specificity) [2]
CC[C@H](C)[C@H](NC(=O)[C@H](CO)NC(=O)[C@@H](N)CO)C(=O)N[C@@H](CCC(=O)O)C(=O)N[C@@H](Cc1ccccc1)C(=O)N[C@@H](C)C(=O)N[C@@H](CCCNC(=N)N)C(=O)N[C@@H](CC(C)C)C(=O)O [HSV gp B, Ser Ser Ile Glu Phe Ala Arg Leu] (H-SSIEFARL-OH) | 45.3 ± 1.5 | 37.0 ± 1.1 | 3.5 ± 0.6 | 0.2 ± 0.8 | recognized and certainly eradicated the cells presenting an H-2K^b - HSV gp B peptide complex alone
CC[C@H](C)[C@H](NC(=O)[C@@H](NC(=O)[C@@H](N)CO)[C@@H](C)CC)C(=O)N[C@@H](CC(N)=O)C(=O)N[C@@H](Cc1ccccc1)C(=O)N[C@@H](CCC(=O)O)C(=O)N[C@@H](CCCCN)C(=O)N[C@@H](CC(C)C)C(=O)O [Ovalbumin, Ser Ile Ile Asn Phe Glu Lys Leu] | – | – | – | – | selectively damaged the cells presenting respective inoculated antigenic peptides
CC(C)C[C@H](NC(=O)CNC(=O)[C@H](CCC(N)=O)NC(=O)[C@H](Cc1ccc(O)cc1)NC(=O)[C@@H](NC(=O)[C@H](Cc1ccc(O)cc1)NC(=O)CNC(=O)[C@@H](N)CCCNC(=N)N)C(C)C)C(=O)O [VSV NP, Arg Gly Tyr Val Tyr Gln Gly Leu] | – | – | – | – | selectively damaged the cells presenting respective inoculated antigenic peptides
